Earlier results on 101 molecules are cited in Sander's compilation of Henry's law constants (doi:10.1063/1.555654).

The series in a line: Henry solubility constant Hcp at 298.15 K (mol/(m3 Pa)). The following applies: reference: Mackay and Shiu (1981); cited value.
As to `ClCCl` [dichloromethane], the “Henry solubility constant Hcp” value was 0.0038.

`Cc1cccc(C)c1C` [1,2,3-trimethylbenzene]: the “Henry solubility constant Hcp” value was 0.0031.

Consider `CC(C)C(C)C(C)C` [2,3,4-trimethylpentane], for which the “Henry solubility constant Hcp” value was 5.3e-06.

Consider `Clc1ccccc1` [chlorobenzene], for which the “Henry solubility constant Hcp” value is 0.0029.

`ClC(Cl)C(Cl)(Cl)Cl` [pentachloroethane]: the “Henry solubility constant Hcp” value was 0.0045.

With `c1ccccc1` [benzene], the “Henry solubility constant Hcp” value is 0.0018.

Regarding `Cc1ccc(C)cc1` [1,4-dimethylbenzene], the “Henry solubility constant Hcp” value was 0.0014.

`CCCl` [chloroethane]: the “Henry solubility constant Hcp” value was 0.005.

Regarding `CCCCCCCC` [octane], the “Henry solubility constant Hcp” value is 3.3e-06.

In the case of `CCCC(C)C` [2-methylpentane], the “Henry solubility constant Hcp” value was 5.9e-06.

Regarding `CCCCC(C)C` [2-methylhexane], the “Henry solubility constant Hcp” value is 2.9e-06.

Regarding `C=C` [ethene], the “Henry solubility constant Hcp” value was 4.6e-05.

`C/C=C/CCCC` [trans-2-heptene]: the “Henry solubility constant Hcp” value was 2.4e-05.

On to `C=CC(C)C` [3-methyl-1-butene], for which the “Henry solubility constant Hcp” value is 1.8e-05.

Turning to `CC(C)CC(C)(C)C` [2,2,4-trimethylpentane], the “Henry solubility constant Hcp” value is 3e-06.

For `C=CCCC` [1-pentene], the “Henry solubility constant Hcp” value was 2.5e-05.

`c1ccc2c(c1)ccc1ccccc12` [phenanthrene]: the “Henry solubility constant Hcp” value was 0.25.

Take `CCCCC` [pentane]: the “Henry solubility constant Hcp” value was 8e-06.

In the case of `ClC1C(Cl)C(Cl)C(Cl)C(Cl)C1Cl` (stereo unspecified) [γ-1,2,3,4,5,6-hexachlorocyclohexane], the “Henry solubility constant Hcp” value was 3.1.

On to `c1ccc2c(c1)Cc1ccccc1-2` [2,3-benzindene], for which the “Henry solubility constant Hcp” value was 0.12.

As to `C[C@H]1CC[C@H](C)CC1` [trans-1,4-dimethylcyclohexane], the “Henry solubility constant Hcp” value is 1.1e-05.

Regarding `CC1CCCCC1` [methylcyclohexane], the “Henry solubility constant Hcp” value is 2.5e-05.

For the molecule `CC(C)CCC(C)(C)C` [2,2,5-trimethylhexane], the “Henry solubility constant Hcp” value was 2.9e-06.

For the molecule `Cc1ccc(C(C)C)cc1` [1-methyl-4-(1-methylethyl)-benzene], the “Henry solubility constant Hcp” value was 0.0013.

Take `C=C(Cl)CCl` [2,3-dichloropropene]: the “Henry solubility constant Hcp” value was 0.0028.

Turning to `COP(=S)(OC)Oc1ccc([N+](=O)[O-])cc1` [methylparathion], the “Henry solubility constant Hcp” value is 50.

As for `Cc1ccccc1C` [1,2-dimethylbenzene], the “Henry solubility constant Hcp” value was 0.002.

Take `ClC(Cl)=C(Cl)Cl` [tetrachloroethene]: the “Henry solubility constant Hcp” value is 0.00043.

`C=CC(=C)C` [2-methyl-1,3-butadiene]: the “Henry solubility constant Hcp” value is 0.00013.

As to `C#CCC` [1-butyne], the “Henry solubility constant Hcp” value is 0.00052.

Consider `CC(Cl)(Cl)Cl` [1,1,1-trichloroethane], for which the “Henry solubility constant Hcp” value was 0.00036.

`CCCCCCCCCC` [decane]: the “Henry solubility constant Hcp” value is 1.4e-06.

Regarding `ClC(Cl)(Cl)Cl` [tetrachloromethane], the “Henry solubility constant Hcp” value is 0.0005.

For the molecule `C#CC` [propyne], the “Henry solubility constant Hcp” value was 0.0009.

As to `CCCCC(C)CCC` (stereo unspecified) [4-methyloctane], the “Henry solubility constant Hcp” value is 1e-06.

As for `CCCCc1ccccc1` [butylbenzene], the “Henry solubility constant Hcp” value was 0.00077.

Take `CCc1ccccc1` [ethylbenzene]: the “Henry solubility constant Hcp” value was 0.0013.

`c1ccc2c(c1)-c1cccc3cccc-2c13` [benzo[jk]fluorene]: the “Henry solubility constant Hcp” value is 0.0045.

Consider `CCCC(C)CC` (stereo unspecified) [3-methylhexane], for which the “Henry solubility constant Hcp” value was 4.2e-06.

`CCCc1ccccc1` [propylbenzene]: the “Henry solubility constant Hcp” value was 0.0014.

Consider `Cc1cc(C)cc(C)c1` [1,3,5-trimethylbenzene], for which the “Henry solubility constant Hcp” value was 0.0017.

For `ClC1=C(Cl)[C@]2(Cl)[C@H]3[C@H]([C@@H]4C=C[C@H]3C4)[C@@]1(Cl)C2(Cl)Cl` [aldrin], the “Henry solubility constant Hcp” value is 0.36.

With `Fc1ccccc1` [fluorobenzene], the “Henry solubility constant Hcp” value was 0.0016.

Regarding `CCC(C)CC` [3-methylpentane], the “Henry solubility constant Hcp” value was 5.8e-06.

Consider `c1ccc2ccccc2c1` [naphthalene], for which the “Henry solubility constant Hcp” value was 0.023.

As for `C=CCCCCCC` [1-octene], the “Henry solubility constant Hcp” value was 1e-05.

For the molecule `CC1CCC(C)(C)C1` (stereo unspecified) [1,1,3-trimethylcyclopentane], the “Henry solubility constant Hcp” value was 6.3e-06.

For `Ic1ccccc1` [iodobenzene], the “Henry solubility constant Hcp” value is 0.0077.

Consider `CCCCCCC` [heptane], for which the “Henry solubility constant Hcp” value is 4.3e-06.

Consider `CCCC` [butane], for which the “Henry solubility constant Hcp” value is 1e-05.

For the molecule `C=CCCl` [3-chloro-1-propene], the “Henry solubility constant Hcp” value was 0.00091.

As to `CC(C)C` [2-methylpropane], the “Henry solubility constant Hcp” value was 8.3e-06.

As to `Cl/C=C\CCl` [cis-1,3-dichloropropene], the “Henry solubility constant Hcp” value was 0.0042.

For the molecule `Cc1ccc(C)c(C)c1` [1,2,4-trimethylbenzene], the “Henry solubility constant Hcp” value was 0.0017.

In the case of `C=C(C)CCC` [2-methyl-1-pentene], the “Henry solubility constant Hcp” value was 3.6e-05.

Consider `COP(=S)(Oc1cc(Cl)c(Br)cc1Cl)c1ccccc1` (stereo unspecified) [leptophos], for which the “Henry solubility constant Hcp” value was 3.7.

`CCC(C)C(C)C` (stereo unspecified) [2,3-dimethylpentane]: the “Henry solubility constant Hcp” value is 5.7e-06.

Consider `CC1CCCC1` [methylcyclopentane], for which the “Henry solubility constant Hcp” value is 2.7e-05.

With `CC(C)(C)C` [dimethylpropane], the “Henry solubility constant Hcp” value is 2.7e-06.

Turning to `CCCCCCCCCCCC` [dodecane], the “Henry solubility constant Hcp” value was 1.3e-06.

Consider `C1CCCC1` [cyclopentane], for which the “Henry solubility constant Hcp” value was 5.4e-05.

As for `CC(C)C(C)C` [2,3-dimethylbutane], the “Henry solubility constant Hcp” value is 7.7e-06.

For `CCCCCCCCC` [nonane], the “Henry solubility constant Hcp” value is 2e-06.

Take `CC(C)Cc1ccccc1` [(2-methylpropyl)-benzene]: the “Henry solubility constant Hcp” value is 0.0003.

Take `CCc1ccc(C)cc1` [1-ethyl-4-methylbenzene]: the “Henry solubility constant Hcp” value is 0.002.

Take `CCCCCC1CCCC1` [pentylcyclopentane]: the “Henry solubility constant Hcp” value is 5.4e-06.

Take `C=CC` [propene]: the “Henry solubility constant Hcp” value is 4.7e-05.

On to `Cl/C=C/CCl` [trans-1,3-dichloropropene], for which the “Henry solubility constant Hcp” value is 0.0056.

Turning to `C=CC=C` [1,3-butadiene], the “Henry solubility constant Hcp” value is 0.00013.

On to `CCc1ccc2ccccc2c1` [2-ethylnaphthalene], for which the “Henry solubility constant Hcp” value was 0.012.

For `CC(C)CC(C)C` [2,4-dimethylpentane], the “Henry solubility constant Hcp” value is 3.3e-06.

As for `CCCC(C)(C)C` [2,2-dimethylpentane], the “Henry solubility constant Hcp” value was 3.1e-06.

Take `CCCCC(C)CC` (stereo unspecified) [3-methylheptane]: the “Henry solubility constant Hcp” value is 2.7e-06.

As for `Cc1ccccc1` [methylbenzene], the “Henry solubility constant Hcp” value was 0.0015.

`Cc1cccc(C)c1` [1,3-dimethylbenzene]: the “Henry solubility constant Hcp” value was 0.0014.

In the case of `CCC(C)(C)C` [2,2-dimethylbutane], the “Henry solubility constant Hcp” value is 5.8e-06.

Consider `Cc1cccc2ccccc12` [1-methylnaphthalene], for which the “Henry solubility constant Hcp” value was 0.022.

On to `C=CCC(C)C` [4-methyl-1-pentene], for which the “Henry solubility constant Hcp” value was 1.6e-05.

For `c1ccc(-c2ccccc2)cc1` [biphenyl], the “Henry solubility constant Hcp” value is 0.036.

As for `ClCC(Cl)Cl` [1,1,2-trichloroethane], the “Henry solubility constant Hcp” value was 0.0083.

As for `Clc1ccc(C(c2ccc(Cl)cc2)C(Cl)(Cl)Cl)cc1` [1,1,1-trichloro-2,2-bis-(4-chlorophenyl)-ethane], the “Henry solubility constant Hcp” value was 0.19.

As to `Brc1ccccc1` [bromobenzene], the “Henry solubility constant Hcp” value is 0.0048.

Regarding `CCC(C)(C)CC` [3,3-dimethylpentane], the “Henry solubility constant Hcp” value was 5.4e-06.

With `CC(C)CCl` [1-chloro-2-methylpropane], the “Henry solubility constant Hcp” value was 0.0083.

Take `CCC(C)c1ccccc1` (stereo unspecified) [(1-methylpropyl)-benzene]: the “Henry solubility constant Hcp” value is 0.00071.

Take `c1cc2c3c(cccc3c1)CC2` [acenaphthene]: the “Henry solubility constant Hcp” value was 0.042.

On to `C1CCCCC1` [cyclohexane], for which the “Henry solubility constant Hcp” value was 5.6e-05.

Consider `CCc1cccc2ccccc12` [1-ethylnaphthalene], for which the “Henry solubility constant Hcp” value was 0.026.

With `ClC(Cl)C(Cl)Cl` [1,1,2,2-tetrachloroethane], the “Henry solubility constant Hcp” value is 0.021.

Take `Clc1cccc(Cl)c1` [1,3-dichlorobenzene]: the “Henry solubility constant Hcp” value was 0.0028.

`ClCC(Cl)(Cl)Cl` [1,1,1,2-tetrachloroethane]: the “Henry solubility constant Hcp” value was 0.0036.

With `BrC(Br)Br` [tribromomethane], the “Henry solubility constant Hcp” value was 0.016.

Regarding `CCC(C)C` [2-methylbutane], the “Henry solubility constant Hcp” value was 7.2e-06.

With `C[C@@H]1CCCC[C@@H]1C` [cis-1,2-dimethylcyclohexane], the “Henry solubility constant Hcp” value is 2.8e-05.

For `Clc1ccc(Cl)cc1` [1,4-dichlorobenzene], the “Henry solubility constant Hcp” value is 0.0063.

Take `CC(C)(C)c1ccccc1` [(1,1-dimethylethyl)-benzene]: the “Henry solubility constant Hcp” value was 0.00083.

With `CCCCCC` [hexane], the “Henry solubility constant Hcp” value is 5.9e-06.

On to `CCCCCc1ccccc1` [pentylbenzene], for which the “Henry solubility constant Hcp” value is 0.0017.

On to `c1ccc2cc3ccccc3cc2c1` [anthracene], for which the “Henry solubility constant Hcp” value is 0.17.

Take `ClC1=C(Cl)[C@]2(Cl)[C@@H]3[C@@H]4C[C@@H]([C@H]5O[C@@H]45)[C@@H]3[C@@]1(Cl)C2(Cl)Cl` [dieldrin]: the “Henry solubility constant Hcp” value is 0.91.

For `BrCBr` [dibromomethane], the “Henry solubility constant Hcp” value is 0.031.
